Reference: patent US4490370A, “Naphthylglycyl cephalosporin derivatives” (priority 1983, dated 1984)
Converted amounts (≈) assume the structure as drawn. Structures can show the parent of a compound that is named as a salt. Where two headings read alike, the source gives them in different places.

How the values were obtained:
Type in all cases: cell-based
Staph. aureus = test: Agar dilution MIC, Staph. aureus; details: Staphylococcus aureus
From the text: (§1) The following Tables present typical minimum inhibitory concentrations (MIC's) in μg/ml for the compounds when evaluated against the indicated microorganisms.

Staph. epi = test: Agar dilution MIC, Staph. epi; details: read-out: MIC
From the text: as §1

Strep. A = test: Agar dilution MIC, Strep. A; details: Table I, strain C203; read-out: MIC
From the text: (§2) A typical and preferred compound provided by this invention is 7-(2-naphthylglycylamido)-3-methyl-3-cephem-4-carboxylic acid, the compound of Example 3. The antibacterial activity of this compound and several others of the invention has been determined in standard in vitro agar dilution assays against a variety of gram positive microorganisms. The following Tables present typical minimum inhibitory concentrations (MIC's) in μg/ml for the compounds when evaluated against the indicated microorganisms. MIC's for several known compounds are also presented for comparison.

Strep. PN = test: Agar dilution MIC, Strep. PN; details: Table I, strain PARK; read-out: MIC
From the text: as §1

H. influ. = test: Agar dilution MIC, H. influenza; details: read-out: MIC
From the text: as §1

Klebsiella = test: Agar dilution MIC, Klebsiella; details: Klebsiella; Table I, strain X26; read-out: MIC
From the text: as §2

[1] = Table I, strain V41, read-out: MIC
[2] = Table I, strain X1.1, read-out: MIC
[3] = Table I, strain X400, read-out: MIC
[4] = Table II, strain S224, read-out: MIC
[5] = Table II, strain S225, read-out: MIC
[6] = Table II, strain S226, read-out: MIC
[7] = Table II, strain S227, read-out: MIC
[8] = Table II, strain S228, read-out: MIC
[9] = Table II, strain S229, read-out: MIC
[10] = Table II, strain S230, read-out: MIC
[11] = Table II, strain S231, read-out: MIC
[12] = Table II, strain S234, read-out: MIC
[13] = Table II, strain S237, read-out: MIC
[14] = Table II, strain S238, read-out: MIC
[15] = Table II, strain S239, read-out: MIC
[16] = Table II expanded spectrum, strain EPI1

Row | SMILES | MIC (Staph. aureus; [1]) | MIC (Staph. aureus; [2]) | MIC (Staph. epi; Table I, strain 222) | MIC (Staph. epi; Table I, strain EPI1) | MIC (Strep. A) | MIC (Strep. PN) | MIC (Klebsiella) | MIC (H. influ.; Table I, strain BRUN) | MIC (Staph. aureus; [4]) | MIC (Staph. aureus; [5]) | MIC (Staph. aureus; [6]) | MIC (Staph. aureus; [7]) | MIC (Staph. aureus; [8]) | MIC (Staph. aureus; [9]) | MIC (Staph. aureus; [10]) | MIC (Staph. aureus; [11]) | MIC (Staph. aureus; [12]) | MIC (Staph. aureus; [13]) | MIC (Staph. aureus; [14]) | MIC (Staph. aureus; [15]) | other results
1 | COC1=C(C(=O)O)N2C(=O)C(NC(=O)C(N)c3ccc4ccccc4c3)C2SC1 (racemic) [Example 6, 7-(2-Naphthylglycylamido)-3-methoxy-3-cephem-4-carboxylic acid trifluoroacetate] | 32 µg/mL | 1 µg/mL | 2 µg/mL | 8 µg/mL | 0.125 µg/mL | > 138 µg/mL | 8 µg/mL | – | – | – | – | – | – | – | – | – | – | – | – | – | MIC (Staph. aureus; Table I, strain S13E): 32 µg/mL; MIC (H. influ.; Table I, strain 251): 32 µg/mL
2 | CC1(C)S[C@@H]2[C@H](NC(=O)[C@H](N)c3ccccc3)C(=O)N2[C@H]1C(=O)O [Ampicillin, reference compound] | – | – | – | 8 µg/mL (≈ 22.9 µM) | 0.03 µg/mL (≈ 0.0859 µM) | 0.03 µg/mL (≈ 0.0859 µM) | 16 µg/mL (≈ 45.8 µM) | 0.5 µg/mL (≈ 1.43 µM) | – | – | – | – | – | – | – | – | – | – | – | – | MIC (H. influ.; Table I, strain 251): 16 µg/mL (≈ 45.8 µM)
3 | CC1=C(C(=O)O)N2C(=O)C(NC(=O)[C@H](N)c3ccc4cc(Cl)ccc4c3)C2SC1 (stereo partly drawn) [Example 7, D-7-(6-chloronaphth-2-ylglycylamido)-3-methyl-3-cephem-4-carboxylic acid] | 8 µg/mL (≈ 18.5 µM) | 0.25 µg/mL (≈ 0.579 µM) | 0.5 µg/mL (≈ 1.16 µM) | 4 µg/mL (≈ 9.26 µM) | 0.06 µg/mL (≈ 0.139 µM) | 0.25 µg/mL (≈ 0.579 µM) | 8 µg/mL (≈ 18.5 µM) | 32 µg/mL (≈ 74.1 µM) | 0.5 µg/mL (≈ 1.16 µM) | 0.5 µg/mL (≈ 1.16 µM) | 1 µg/mL (≈ 2.32 µM) | 0.5 µg/mL (≈ 1.16 µM) | 0.5 µg/mL (≈ 1.16 µM) | 1 µg/mL (≈ 2.32 µM) | 0.5 µg/mL (≈ 1.16 µM) | 0.25 µg/mL (≈ 0.579 µM) | 1 µg/mL (≈ 2.32 µM) | 0.5 µg/mL (≈ 1.16 µM) | 1 µg/mL (≈ 2.32 µM) | 1 µg/mL (≈ 2.32 µM) | MIC (Staph. aureus; [3]): 64 µg/mL (≈ 148 µM); MIC (Staph. epi; [16]): 8 µg/mL (≈ 18.5 µM); MIC (Staph. epi; Table II, strain 269): 4 µg/mL (≈ 9.26 µM); MIC (Staph. epi; Table II, strain 270): 4 µg/mL (≈ 9.26 µM); MIC (Staph. epi; Table II, strain 285): 2 µg/mL (≈ 4.63 µM); MIC (Staph. epi; Table II, strain 286): 1 µg/mL (≈ 2.32 µM); MIC (H. influ.; Table II, strain 76): 16 µg/mL (≈ 37 µM); MIC (H. influ.; Table II, strain 1930): 16 µg/mL (≈ 37 µM); MIC (H. influ.; Table II, strain C.L.): 32 µg/mL (≈ 74.1 µM); MIC (H. influ.; Table II, strain HESS): 32 µg/mL (≈ 74.1 µM); MIC (H. influ.; Table II, strain M366): > 64 µg/mL; MIC (H. influ.; Table II, strain R465): 32 µg/mL (≈ 74.1 µM); MIC (H. influ.; Table II, strain STEL): > 64 µg/mL
4 | COCC1=C(C(=O)O)N2C(=O)C(NC(=O)[C@H](N)c3ccc4ccccc4c3)C2SC1 (stereo partly drawn) [Example 8, 7-(2-Naphthylglycylamido)-3-methoxymethyl-3-cephem-4-carboxylic acid] | – | – | – | – | – | – | – | – | 0.5 µg/mL (≈ 1.17 µM) | 0.5 µg/mL (≈ 1.17 µM) | 1 µg/mL (≈ 2.34 µM) | 0.5 µg/mL (≈ 1.17 µM) | 0.5 µg/mL (≈ 1.17 µM) | 1 µg/mL (≈ 2.34 µM) | 0.5 µg/mL (≈ 1.17 µM) | 0.5 µg/mL (≈ 1.17 µM) | 1 µg/mL (≈ 2.34 µM) | 0.5 µg/mL (≈ 1.17 µM) | 1 µg/mL (≈ 2.34 µM) | 1 µg/mL (≈ 2.34 µM) | MIC (Staph. epi; [16]): 4 µg/mL (≈ 9.36 µM); MIC (Staph. epi; Table II, strain 219): 0.5 µg/mL (≈ 1.17 µM); MIC (Staph. epi; Table II, strain 269): 2 µg/mL (≈ 4.68 µM); MIC (Staph. epi; Table II, strain 270): 2 µg/mL (≈ 4.68 µM); MIC (Staph. epi; Table II, strain 285): 1 µg/mL (≈ 2.34 µM); MIC (Staph. epi; Table II, strain 286): 0.5 µg/mL (≈ 1.17 µM); MIC (H. influ.; Table II, strain 76): 8 µg/mL (≈ 18.7 µM); MIC (H. influ.; Table II, strain 105): 8 µg/mL (≈ 18.7 µM); MIC (H. influ.; Table II, strain 158): 8 µg/mL (≈ 18.7 µM); MIC (H. influ.; Table II, strain 164): 8 µg/mL (≈ 18.7 µM); MIC (H. influ.; Table II, strain 169): 8 µg/mL (≈ 18.7 µM); MIC (H. influ.; Table II, strain 171): 8 µg/mL (≈ 18.7 µM); MIC (H. influ.; Table II, strain 312): 8 µg/mL (≈ 18.7 µM); MIC (H. influ.; Table II, strain 1930): 16 µg/mL (≈ 37.4 µM); MIC (H. influ.; Table II, strain 4842): 8 µg/mL (≈ 18.7 µM); MIC (H. influ.; Table II, strain C.L.): 8 µg/mL (≈ 18.7 µM); MIC (H. influ.; Table II, strain HESS): 8 µg/mL (≈ 18.7 µM); MIC (H. influ.; Table II, strain M366): > 64 µg/mL; MIC (H. influ.; Table II, strain R465): 16 µg/mL (≈ 37.4 µM); MIC (H. influ.; Table II, strain STEL): > 64 µg/mL
5 | COc1ccc2cc([C@@H](N)C(=O)NC3C(=O)N4C(C(=O)O)=C(C)CSC34)ccc2c1 (stereo partly drawn) [Example 10, D-7-(6-Methoxy-2-naphthyl)glycylamido-3-methyl-3-cephem-4-carboxylic acid] | 16 µg/mL (≈ 37.4 µM) | 0.25 µg/mL (≈ 0.585 µM) | 1 µg/mL (≈ 2.34 µM) | 4 µg/mL (≈ 9.36 µM) | 0.125 µg/mL (≈ 0.292 µM) | 0.125 µg/mL (≈ 0.292 µM) | 4 µg/mL (≈ 9.36 µM) | 16 µg/mL (≈ 37.4 µM) | 0.5 µg/mL (≈ 1.17 µM) | 0.5 µg/mL (≈ 1.17 µM) | 1 µg/mL (≈ 2.34 µM) | 1 µg/mL (≈ 2.34 µM) | 0.5 µg/mL (≈ 1.17 µM) | 1 µg/mL (≈ 2.34 µM) | 0.5 µg/mL (≈ 1.17 µM) | 0.25 µg/mL (≈ 0.585 µM) | 1 µg/mL (≈ 2.34 µM) | 1 µg/mL (≈ 2.34 µM) | 1 µg/mL (≈ 2.34 µM) | 1 µg/mL (≈ 2.34 µM) | MIC (Staph. aureus; Table I, strain S13E): 16 µg/mL (≈ 37.4 µM); MIC (Staph. aureus; [3]): 64 µg/mL (≈ 150 µM); MIC (Staph. epi; [16]): 4 µg/mL (≈ 9.36 µM); MIC (Staph. epi; Table II, strain 219): 5 µg/mL (≈ 11.7 µM); MIC (Staph. epi; Table II, strain 269): 2 µg/mL (≈ 4.68 µM); MIC (Staph. epi; Table II, strain 270): 4 µg/mL (≈ 9.36 µM); MIC (Staph. epi; Table II, strain 285): 2 µg/mL (≈ 4.68 µM); MIC (Staph. epi; Table II, strain 286): 0.5 µg/mL (≈ 1.17 µM); MIC (H. influ.; Table II, strain 1930): 8 µg/mL (≈ 18.7 µM); MIC (H. influ.; Table II, strain C.L.): 8 µg/mL (≈ 18.7 µM); MIC (H. influ.; Table II, strain HESS): 8 µg/mL (≈ 18.7 µM); MIC (H. influ.; Table II, strain M366): 16 µg/mL (≈ 37.4 µM); MIC (H. influ.; Table II, strain R465): 16 µg/mL (≈ 37.4 µM); MIC (H. influ.; Table II, strain STEL): 16 µg/mL (≈ 37.4 µM)
